In US4215112A, “Tripeptides and methods” (Ortho Pharmaceutical Corporation, priority 1979, dated 1980):
Where a SMILES comes first, the peptide text is derived from it. Where no end group is shown, it is not given here. [ ]: non-standard residue; d: D form. Glx = not defined here; Sar = CNCC(=O)O

Columns and labels:
[1] = system: Th-1+ T lymphocytes (T-precursor cells of bone marrow); assay: chicken induction assay, Th-1+ T cells; assay type: cell-based
Excerpt: (§1) To determine the activity and characteristics of the tripeptide amide produced in Example I, the following chicken induction assay was employed. This assay is described in greater detail in Brand, et al., Science, 193, 319-321 (July 23, 1976) and references contained therein.
(§2) Bone marrow from newly-hatched chickens was selected as a source of inducible cells because it lacks an appreciable number of Bu-1^+ or Th-1^+ cells. Pooled cells from femur and tibiotarsus of five newly-hatched chicks of strain SC (Hy-Line) were fractionated by ultracentrifugation on a five-layer discontinuous bovine serum albumin (BSA) gradient. Cells from the two lighter layers were combined, washed, and suspended for incubation at a concentration of 5×10^6 cells per milliliter with the appropriate concentration of test polypeptide in RPMI 1630 medium supplemented with 15 mM hepes, 5 percent γ-globulin-free fetal calf serum, deoxyribonuclease (14 to 18 unit/ml), heparin (5 unit/ml), penicillin (100 unit/ml), and streptomycin (100 μg/ml). Controls were incubated with BSA (1 μg/ml) or medium alone. After incubation, the cells were tested in the cytotoxicity assay using chicken Cl and guinea pig C2 to C9 complement fractions as described in the reference article. The proportion of Bu-1^+ or Th-1^+ cells in each layer was calculated as a cytotoxicity index, 100 (a-b)/a, where a and b are the percentages of viable cells in the complement control and test preparation, respectively. The percentage of cells induced was obtained by subtracting the mean values in the control incubations without inducing agents (usually 1 to 3 percent) from those of the test inductions.
(§3) This high dose of ubiquitin inactivates the ubiquitin receptors and thus prevents the induction of cells by any agent which acts through these receptors.

[2] = system: Bu-1+ B lymphocytes (B-precursor cells of bone marrow); assay: chicken induction assay, Bu-1+ B cells; assay type: cell-based
Excerpt: as §1, §2, §3

[3] = system: immunocyte-precursor cells; assay: in vitro induction of differentiation of immunocyte-precursor cells (general statement); assay type: cell-based
Excerpt: Stated another way, the subject polypeptides have the capability of inducing differentiation of both Th-1^+ T-lymphocytes and Bu-1^+ B-lymphocytes.
The carrier may be any of the well-known carriers for this purpose including normal saline solutions, preferably with a protein diluent such as bovine serum albumin to prevent adsorptive losses to glassware at these low concentrations. The polypeptides of this invention are generally active when parenterally administered at a range of above about 1 μg/kg of body weight. For the treatment of DiGeorge Syndrome, the polypeptides may be parenterally administered at a rate of about 1 to about 100 μg/kg of body weight. Generally, the same range of dosage amounts may be used in treatment of the other conditions or diseases mentioned.

T cells = details: E rosette assay; literature; cited from earlier work
T cells and B cells = details: literature / copending application; cited from earlier work
[4] = bone marrow cells of newly-hatched chickens, cytotoxicity assay

Compound: C[C@@H](NC(=O)[C@@H](N)CCCCN)C(=O)N[C@@H](CCC(N)=O)C(N)=O [H--LYS--D--ALA--GLN--NH2] (H-Lys-[dA]-Gln-NH2)
- biological activity: induction of differentiation of Th-1+ T cells ([1]; result in words): Biological activity similar to that of ubiquitin was observed
- biological activity: induction of differentiation of Bu-1+ B cells ([2]; result in words): Biological activity similar to that of ubiquitin was observed

Compound: CN(CC(=O)N[C@@H](CCC(N)=O)C(N)=O)C(=O)[C@@H](N)CCCCN [amidated tripeptide of Example I, H--LYS--SAR--GLN--NH2] (H-Lys-[Sar]-Gln-NH2)
- concentration inducing the differentiation of Th-1+ T lymphocytes [1, 4]: 100 pg/mL
- effect of added ubiquitin on induction of Th-1+ T cells by the test polypeptide ([1]; ubiquitin 100 μg/ml added): inhibition of induction
- concentration inducing the differentiation of Bu-1+ B lymphocytes [2, 4]: 100 pg/mL
- effect of added ubiquitin on induction of Bu-1+ B cells by the test polypeptide ([2]; ubiquitin 100 μg/ml added): inhibition of induction
- concentration at which active [3]: about 100 pg/ml

Compound: GLX--ALA--LYS--SER--GLN--GLY--GLY--SER--ASN (Glx-AKSQGGSN; reading uncertain; also: N-terminal Glx: Gln or pyroglutamic acid, printed as GLX--ALA--LYS--SER--GLN--GLY--GLY--SER--ASN) [FTS, nonapeptide isolated from porcine serum; GLX is glutamine or pyroglutamic acid]
- differentiation of T cells versus B cells (T cells): selectively differentiated T cells (and not B cells)
- differentiation of T cells and B cells (T cells and B cells): differentiated both T cells and B cells

Compound: H--ALA--LYS--SER--GLN--OH (H-AKSQ-OH) [tetrapeptide of copending application Ser. No. 960,550]
- differentiation of T cells and B cells (T cells and B cells): same activity as FTS

Compound: H--SAR--LYS--SAR--GLN--NH2
- differentiation of T cells and B cells (T cells and B cells): same activity as FTS
